Assay results reported in ChEMBL document CHEMBL1147151, “In vitro optimization of non-small cell lung cancer activity with troxacitabine, L-1,3-dioxolane-cytidine, prodrugs” (J Med Chem, 2007).

Experiments:
A549 = assay: Cytotoxicity against A549 cells after 72 hrs by SRB assay; format: functional, cell-based; details: Homo sapiens, A549, 72 h
SW1573 = assay: Cytotoxicity against SW1573 cells after 72 hrs by SRB assay; format: functional, cell-based; details: Homo sapiens, SW1573, 72 h

Structure (SMILES) | IC50 (A549) | IC50 (SW1573)
COc1ccc(C(=O)Nc2ccn([C@@H]3CO[C@H](CO)O3)c(=O)n2)cc1 | 3.5 µM | 10 µM
CCCCCCCCCCCCCCCCCC(=O)Nc1ccn([C@@H]2CO[C@H](CO)O2)c(=O)n1 | 0.025 µM | 0.125 µM
CCCCCCC(=O)Nc1ccn([C@@H]2CO[C@H](CO)O2)c(=O)n1 | 1.04 µM | 2.4 µM
CCCCCCCCCCCCCCCC(=O)Nc1ccn([C@@H]2CO[C@H](CO)O2)c(=O)n1 | 0.004 µM | 0.02 µM
O=C(Nc1ccn([C@@H]2CO[C@H](CO)O2)c(=O)n1)c1ccc(Br)cc1 | 4.53 µM | 8.87 µM
O=C(Nc1ccn([C@@H]2CO[C@H](CO)O2)c(=O)n1)c1ccccc1 | 8.53 µM | 13.7 µM
O=C(Nc1ccn([C@@H]2CO[C@H](CO)O2)c(=O)n1)C1CC1 | 18.7 µM | 22 µM
Nc1ccn([C@@H]2CO[C@H](CO)O2)c(=O)n1 [TROXACITABINE] | 0.68 µM | 2.3 µM
CCCCCCCCCCCCCCCCCCCC(=O)Nc1ccn([C@@H]2CO[C@H](CO)O2)c(=O)n1 | 0.03 µM | 0.15 µM
CCCCCCCCC(=O)Nc1ccn([C@@H]2CO[C@H](CO)O2)c(=O)n1 | 0.046 µM | 0.276 µM
O=C(Nc1ccn([C@@H]2CO[C@H](CO)O2)c(=O)n1)c1ccc(Cl)cc1 | 0.41 µM | 2.77 µM
O=C(Nc1ccn([C@@H]2CO[C@H](CO)O2)c(=O)n1)c1ccc(Cl)cc1Cl | 9.83 µM | 14.3 µM
CCCC(=O)Nc1ccn([C@@H]2CO[C@H](CO)O2)c(=O)n1 | 6.6 µM | 8.07 µM
Nc1ccn([C@@H]2O[C@H](CO)[C@@H](O)C2(F)F)c(=O)n1 [GEMCITABINE] | 13.1 µM | 8.3 µM
CCCCCCCCCCCCCCCCCCCCCC(=O)Nc1ccn([C@@H]2CO[C@H](CO)O2)c(=O)n1 | 0.5 µM | 0.9 µM
CC(=O)Nc1ccn([C@@H]2CO[C@H](CO)O2)c(=O)n1 | 6.87 µM | 10.7 µM
CCCCCCCCCCCC(=O)Nc1ccn([C@@H]2CO[C@H](CO)O2)c(=O)n1 | 0.015 µM | 0.03 µM
O=C(Nc1ccn([C@@H]2CO[C@H](CO)O2)c(=O)n1)C1CCCCC1 | 7.37 µM | 14 µM
O=C(Nc1ccn([C@@H]2CO[C@H](CO)O2)c(=O)n1)C1CCCC1 | 2.97 µM | 8.8 µM
CCCCCCCCCC(=O)Nc1ccn([C@@H]2CO[C@H](CO)O2)c(=O)n1 | 0.024 µM | 0.04 µM
O=C(Nc1ccn([C@@H]2CO[C@H](CO)O2)c(=O)n1)c1ccc(F)cc1 | 8.67 µM | 15.3 µM
CCCCC(=O)Nc1ccn([C@@H]2CO[C@H](CO)O2)c(=O)n1 | 5.23 µM | 9.13 µM
